Legend:
[1] = tested on: Botrytis cinerea; assay: In vivo test on Botrytis cinerea (cucumber grey mould), cucumber plants; conditions: 330 ppm; for effectiveness on Botrytis cinerea: comparison compounds of WO 01/11965
Method: The active ingredient tested is prepared by potter homogenisation in a concentrated suspension type formulation at 100 g/l. This suspension is then diluted with water to obtain the desired active material concentration.
Cucumber plants (Marketer variety) in starter cups, sown on a 50/50 peat soil-pozzolana substrate and grown at 18-20° C., are treated at the cotyledon Z11 stage by spraying with the aqueous suspension described above. Plants, used as controls, are treated with an aqueous solution not containing the active material.
After 24 hours, the plants are contaminated by depositing drops of an aqueous suspension of Botrytis cinerea spores (150,000 spores per ml) on upper surface of the leaves. The spores are collected from a 15-day-old culture and are suspended in a nutrient solution composed of: • 20 g/L of gelatin • 50 g/L of cane sugar • 2 g/L of NH4NO3 • 1 g/L of KH2PO4
The contaminated cucumber plants are settled for 5/7 days in a climatic room at 15-11° C. (day/night) and at 80% relative humidity.
Grading is carried out 5/7 days after the contamination, in comparison with the control plants. Under these conditions, good (at least 50%) or total protection is observed at a dose of 330 ppm with the following compounds: 3.

[2] = tested on: Alternaria brassicae; assay: In vivo test on Alternaria brassicae (leaf spot of crucifers), radish plants; conditions: 330 ppm, comparison compounds of WO 01/11965
Method: The active ingredient tested is prepared by potter homogenisation in a concentrated suspension type formulation at 100 g/l. […] Radish plants (Pernot variety) in starter cups, sown on a 50/50 peat soil-pozzolana substrate and grown at 18-20° C., are treated at the cotyledon stage by spraying with the aqueous suspension described above. Plants, used as controls, are treated with an aqueous solution not containing the active material. After 24 hours, the plants are contaminated by spraying them with an aqueous suspension of Alternaria brassicae spores (40,000 spores per cm^3). The spores are collected from a 12 to 13 days-old culture. The contaminated radish plants are incubated for 6-7 days at about 18° C., under a humid atmosphere. Grading is carried out 6 to 7 days after the contamination, in comparison with the control plants. Under these conditions, good (at least 50%) or total protection is observed at a dose of 330 ppm with the following compounds: 1, 2, 3 and 4.

[3] = tested on: Peronospora parasitica; assay: Efficacy against Peronospora parasitica; assay type: in vivo; conditions: 330 ppm, comparison compound of WO 01/11965

Structure (SMILES) | protection (good, at least 50%, or total) ([1]; preventive spray on cucumber plants, grading 5/7 days after contamination, versus control plants) | effectiveness on Botrytis cinerea [1] | effectiveness on Alternaria brassicae [2] | efficacy against Peronospora parasitica [3]
O=C(NCCc1cc(F)ncc1F)c1ccccc1C(F)(F)F [Compound 3] | at least 50% | – | – | –
O=C(Cc1cccs1)NCc1ncc(C(F)(F)F)cc1Cl [compound 101, N-{[3-chloro-5-(trifluoromethyl)-2-pyridinyl]methyl}-5-thienylacetamide] | – | no efficacy | poor efficacy | no efficacy
CCNC(=O)C(Cc1ncc(C(F)(F)F)cc1Cl)NC(=O)c1ccccc1 (stereo not shown) [compound 304, N-{1-ethylcarbamoyl-2-[3-chloro-5-(trifluoromethyl)-2-pyridinyl]-ethyl}-benzamide] | – | zero effectiveness | – | –
CCNC(=O)C(Cc1ncc(C(F)(F)F)cc1Cl)NC(=O)c1ccc(Cl)cc1 (stereo not shown) [compound 306, N-{1-ethylcarbamoyl-2-[3-chloro-5-(trifluoromethyl)-2-pyridinyl]ethyl}-4-chlorobenzamide] | – | zero effectiveness | – | –
CCNC(=O)C(Cc1ncc(C(F)(F)F)cc1Cl)NC(=O)c1cccc([N+](=O)[O-])c1 (stereo not shown) [compound 307, N-{1-ethylcarbamoyl-2-[3-chloro-5-(trifluoromethyl)-2-pyridinyl]ethyl}-3-nitrobenzamide] | – | zero effectiveness | poor effectiveness | –
CCNC(=O)C(Cc1ncc(C(F)(F)F)cc1Cl)NC(=O)c1ccccc1Br (stereo not shown) [compound 310, N-{1-ethylcarbamoyl-2-[3-chloro-5-(trifluoromethyl)-2-pyridinyl]ethyl}-2-bromobenzamide] | – | zero effectiveness | – | –
CNC(=O)C(Cc1ncc(C(F)(F)F)cc1Cl)NC(=O)c1ccccc1 (stereo not shown) [compound 314, N-{1-methylcarbamoyl-2-[3-chloro-5-(trifluoromethyl)-2-pyridinyl]ethyl}-benzamide] | – | zero effectiveness | – | –
CNC(=O)C(Cc1ncc(C(F)(F)F)cc1Cl)NC(=O)c1ccc(OC)cc1 (stereo not shown) [compound 315, N-{1-methylcarbamoyl-2-[3-chloro-5-(trifluoromethyl)-2-pyridinyl]ethyl}-4-methoxybenzamide] | – | zero effectiveness | – | –
CNC(=O)C(Cc1ncc(C(F)(F)F)cc1Cl)NC(=O)c1ccc(-c2ccccc2)cc1 (stereo not shown) [compound 316, N-{1-methylcarbamoyl-2-[3-chloro-5-(trifluoromethyl)-2-pyridinyl]-ethyl}-4-phenylbenzamide] | – | zero effectiveness | poor effectiveness | –
